Data on twelve molecules can be found in PubChem BioAssay (NCI).

Test systems include M14 melanoma; LOX IMVI melanoma; NCI-H226 lung; DU-145 prostate; SF-539 CNS; KM12 colon; SNB-75 CNS; SW-620 colon; SF-295 CNS; MDA-MB-231 breast.
Holding throughout (assay): DTP human tumour cell line panel, 48 h

Molecules are shown by their SMILES.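 In this assay, cells in 96-well plates receive the compound at five concentrations for 48 hours. Endpoints are linearly interpolated between the surrounding concentrations. GI50 marks 50% less growth. TGI is the concentration that stops growth completely.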

For the molecule `COc1ccc(-n2nc(C)c3c(Nc4ccc(NC(=O)Nc5ccc(Cl)c(C(F)(F)F)c5)cc4)ncnc32)cc1`, the GI50 with M14 melanoma was 1680 nM; in the test with LOX IMVI melanoma, 1340 nM; in the test on NCI-H226 lung, 2210 nM; in the test on DU-145 prostate, 3.33 µM; with SF-539 CNS, 1240 nM; with KM12 colon it was 1480 nM. For the same molecule, the GI50 with SNB-75 CNS was 553 nM; with SW-620 colon it was 1900 nM; with SF-295 CNS, 1580 nM; in the test with MDA-MB-231 breast it was 1470 nM. For the same molecule, the TGI in the test on M14 melanoma was 4.32 µM; with LOX IMVI melanoma, 2.67 µM; with NCI-H226 lung, 6.08 µM; with DU-145 prostate, over 100 µM; in the test with SF-539 CNS it was 3.2 µM; in the test with KM12 colon, 3.96 µM. Besides, the TGI in the test with SNB-75 CNS is 4.55 µM; in the test on SW-620 colon it was 4.35 µM; with SF-295 CNS, 3.49 µM; with MDA-MB-231 breast it was 3.32 µM.
As for `Cc1cc(C)nc(NS(=O)(=O)c2ccc(NC(=O)c3cccc4c(NNc5ccc(S(=O)(=O)N=C(N)N)cc5)c5ccccc5nc34)cc2)n1`, the TGI in the test with M14 melanoma, in the test on LOX IMVI melanoma, in the test on NCI-H226 lung, in the test on DU-145 prostate, in the test with SF-539 CNS and in the test on KM12 colon was over 50 µM throughout. The TGI in the test with SNB-75 CNS, with SW-620 colon, in the test with SF-295 CNS and in the test on MDA-MB-231 breast was over 50 µM throughout.
Regarding `C[C@]12CC[C@@H]3c4ccc(O)cc4CC[C@H]3[C@@H]1C/C(=C\c1ccc(C#N)cc1)C2=O`, the TGI with M14 melanoma, in the test with LOX IMVI melanoma, in the test with NCI-H226 lung, with DU-145 prostate, in the test with SF-539 CNS and with KM12 colon was over 100 µM in each case. For the same molecule, the TGI in the test with SNB-75 CNS, with SW-620 colon, in the test on SF-295 CNS and in the test on MDA-MB-231 breast was over 100 µM throughout.
`O=C1CS(=O)(=O)C(c2cccc(Oc3ccccc3)c2)N1c1cc(Cl)ccc1Cl` (stereo not given): the TGI was determined as 43.1 µM with M14 melanoma; 28.2 µM with LOX IMVI melanoma; 41.5 µM in the test with NCI-H226 lung; 43.3 µM in the test with DU-145 prostate; 44.6 µM with SF-539 CNS; 39.4 µM in the test with KM12 colon. Moreover, the TGI was 33.1 µM in the test with SNB-75 CNS, over 100 µM with SW-620 colon, 62.1 µM in the test on SF-295 CNS and 38.4 µM in the test on MDA-MB-231 breast.
Turning to `COc1cc(C(O)c2ccc3c(c2)OCO3)cc(OC)c1OC` (stereo not given), the TGI in the test with M14 melanoma, with LOX IMVI melanoma, with NCI-H226 lung, in the test on DU-145 prostate, in the test on SF-539 CNS and in the test on KM12 colon was over 100 µM each time. Besides, the TGI in the test on SNB-75 CNS, in the test with SW-620 colon, with SF-295 CNS and in the test on MDA-MB-231 breast was over 100 µM throughout.
As for `O=C(CC(C(=O)c1ccco1)c1ccco1)c1ccco1` (stereo not given), the concentration for total growth inhibition (TGI) in the test with M14 melanoma, in the test with LOX IMVI melanoma, with NCI-H226 lung, with DU-145 prostate, in the test on SF-539 CNS and with KM12 colon was over 100 µM in each case. Besides, the TGI with SNB-75 CNS, in the test with SW-620 colon, in the test with SF-295 CNS and in the test with MDA-MB-231 breast was over 100 µM each time.
Take `COC(=O)[C@H](Cc1ccccc1)NC(=O)N(CCC#N)CCN(C(=O)N[C@@H](Cc1ccccc1)C(=O)OC)c1ccccc1`: the TGI was 55.1 µM in the test on M14 melanoma; 41.3 µM with LOX IMVI melanoma; 89 µM in the test on NCI-H226 lung; 74.5 µM in the test with DU-145 prostate; 41.1 µM in the test on SF-539 CNS; over 100 µM in the test with KM12 colon. For the same molecule, the total growth inhibition concentration (TGI) in the test on SNB-75 CNS was 45.3 µM; in the test on SW-620 colon, over 100 µM; in the test on SF-295 CNS it was over 100 µM; in the test with MDA-MB-231 breast, 71 µM.
On to `CN(C)c1ccc(Cc2cc3c(O)ccc(O)c3cc(Cc3ccc(N(C)C)cc3)c2=O)cc1`, for which the TGI in the test on M14 melanoma is 34.2 µM; in the test on LOX IMVI melanoma, 40.7 µM; in the test on NCI-H226 lung, 56.2 µM; with DU-145 prostate it was over 60 µM; with SF-539 CNS, 60.9 µM; with KM12 colon, 40 µM. Besides, the TGI was over 92.2 µM with SNB-75 CNS, 41.9 µM in the test with SW-620 colon, over 100 µM in the test on SF-295 CNS and 63.5 µM in the test with MDA-MB-231 breast.
For `O=[N+]([O-])/C(Cl)=C(\NCCN/C(C(Cl)=C(Cl)Cl)=C(/Cl)[N+](=O)[O-])C(Cl)=C(Cl)Cl`, the TGI in the test with M14 melanoma is over 100 µM; in the test on LOX IMVI melanoma, 37.8 µM; with NCI-H226 lung it was over 100 µM; in the test on DU-145 prostate, over 100 µM; in the test on SF-539 CNS, over 100 µM; in the test on KM12 colon, over 100 µM. Moreover, the concentration for total growth inhibition (TGI) with SNB-75 CNS, with SW-620 colon, in the test with SF-295 CNS and in the test on MDA-MB-231 breast was over 100 µM throughout.
For the molecule `COc1ccc(N2C(=O)C3c4[nH]c5ccccc5c4C4CCCCCCCCCC4C3C2=O)cc1` (stereo not given), the TGI with M14 melanoma, in the test on LOX IMVI melanoma, with NCI-H226 lung, in the test on DU-145 prostate, in the test on SF-539 CNS and with KM12 colon was over 10 µM each time. Besides, the TGI in the test with SNB-75 CNS, in the test with SW-620 colon, with SF-295 CNS and with MDA-MB-231 breast was over 10 µM throughout.
As for `CCNc1ncnc2sc(SCc3ccccc3)nc12`, the TGI with M14 melanoma, with LOX IMVI melanoma, in the test with NCI-H226 lung, with DU-145 prostate, with SF-539 CNS and in the test on KM12 colon was over 100 µM each time. The TGI in the test with SNB-75 CNS, with SW-620 colon, in the test on SF-295 CNS and with MDA-MB-231 breast was over 100 µM in each case.
For the molecule `COc1ccc(Oc2cnn(C(Br)(Br)C(C)=O)c(=O)c2Br)cc1`, the TGI in the test with M14 melanoma stood at 30.6 µM; in the test on LOX IMVI melanoma, 24.4 µM; with NCI-H226 lung, 46.6 µM; with DU-145 prostate, 42.2 µM; with SF-539 CNS, 25.4 µM; in the test on KM12 colon, 31.4 µM. Moreover, the TGI in the test on SNB-75 CNS stood at 29.4 µM; in the test with SW-620 colon, 27.8 µM; in the test with SF-295 CNS, 51.6 µM; in the test with MDA-MB-231 breast, 32.5 µM.

By GI50 is commonly meant the concentration that inhibits growth by half. A word on the TGI: it is the concentration at which net growth stops. Lower therefore signals more potent growth arrest.
